What is called IC50 is the concentration at which inhibition is half-maximal. Read a high IC50 as a need for much substance.

This note sets out measurements from ChEMBL document CHEMBL5604063, “ASAP - DENV-2 NS2B-NS3 protease fluorescence dose response” (2024).

For test [1], the target named is T1, Genome polyprotein (dengue virus type 2, UniProt P29990). The format is functional, Thailand/16681/1984.
Test [2] addresses T1, Genome polyprotein. The format is functional, Thailand/16681/1984. The source holds these as a separate data set.

Values joined by “and” are separate entries in the source; they are usually repeats but may differ in a detail not shown here. Identical values can stand only once.

T1 sequence (P29990 1346-1475 limits assumed): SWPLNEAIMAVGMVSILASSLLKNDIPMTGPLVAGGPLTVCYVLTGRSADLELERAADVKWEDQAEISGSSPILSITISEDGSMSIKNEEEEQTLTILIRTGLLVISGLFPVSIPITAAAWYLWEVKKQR
T1 sequence (P29990 1476-2093 limits assumed): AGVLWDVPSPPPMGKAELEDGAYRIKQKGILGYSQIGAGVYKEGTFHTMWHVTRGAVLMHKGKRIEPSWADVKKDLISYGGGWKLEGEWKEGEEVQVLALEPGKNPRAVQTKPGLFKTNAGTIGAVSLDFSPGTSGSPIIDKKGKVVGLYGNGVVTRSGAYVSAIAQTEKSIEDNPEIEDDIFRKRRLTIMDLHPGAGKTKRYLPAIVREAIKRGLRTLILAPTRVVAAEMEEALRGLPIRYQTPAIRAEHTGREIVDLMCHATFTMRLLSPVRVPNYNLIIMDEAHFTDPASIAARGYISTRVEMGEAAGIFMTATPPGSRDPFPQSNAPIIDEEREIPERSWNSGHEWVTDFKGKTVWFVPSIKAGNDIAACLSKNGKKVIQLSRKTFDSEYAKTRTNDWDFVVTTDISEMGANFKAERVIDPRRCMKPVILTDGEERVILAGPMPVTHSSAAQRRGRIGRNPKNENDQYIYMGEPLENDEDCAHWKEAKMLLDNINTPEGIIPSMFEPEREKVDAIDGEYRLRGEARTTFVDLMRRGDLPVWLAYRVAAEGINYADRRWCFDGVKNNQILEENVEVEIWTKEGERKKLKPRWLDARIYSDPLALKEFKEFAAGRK

Turning to `NCc1cccc(NC(=O)c2cc(Cl)cc3c2cnn3CC2CC2)c1`, the figures for the half-maximal inhibitory concentration (IC50) at Genome polyprotein [1] and on Genome polyprotein [2] were over 100 µM and over 99.5 µM, respectively.
For `C[C@H]1CCC[C@H](C(=O)Nc2cccc(CN)c2)O1`, in that order: over 100 µM and over 99.5 µM.
For `NCc1cccc(NC(=O)[C@H]2C[C@@H](C(F)(F)F)C[C@@H](C(F)(F)F)C2)c1` the same measures were over 100 µM and over 99.5 µM.
As for `Cn1cncc1COc1cccc([C@H](NC(=O)OCc2ccccc2)C(=O)Nc2cccc(CN)c2)c1`, the IC50 against Genome polyprotein [1] was over 100 µM; at Genome polyprotein [2] it was 66 µM.
For `Cc1ccc(S(=O)(=O)N2Cc3ccccc3C[C@@H](C(=O)Nc3cccc(CN)c3)C2)cc1` the same measures were over 100 µM and 75.2 µM.
Take `O=C(N[C@H]1[C@H]2CCCCC[C@H]2[C@H]1C(=O)Nc1cccc(C2CCNCC2)c1)OCc1ccccc1`: the IC50 on Genome polyprotein [1] was 32.7 µM; against Genome polyprotein [2], 17.9 µM and 53 µM.
Turning to `NCCc1ccc(NC(=O)c2cc(Cl)cc(CN)c2)cc1`, the figures for the IC50 on Genome polyprotein [1] and on Genome polyprotein [2] were over 100 µM and over 99.5 µM, respectively.
For `COCC=Cc1cccc([C@@H](NC(=O)OCc2ccccc2)C(=O)Nc2cccc(CN)c2)c1` the same measures were over 100 µM and 56.9 µM.
For `NCc1cccc(NC(=O)c2cc(N)cc(Cl)c2)c1`, in that order: over 100 µM and over 99.5 µM.
For `c1cncc(CN2CC[C@H](NCc3c[nH]c4ccccc34)C2)c1` the same measures were over 100 µM and over 99.5 µM.
`O=C(Nc1cc(Cl)cc(C(=O)Nc2cccc(-c3cc[nH]n3)c2)c1)OCc1ccccc1`: the half-inhibitory concentration (IC50) is over 100 µM against Genome polyprotein [1] and over 99.5 µM against Genome polyprotein [2].
For `NCCc1cc(Cl)cc(C(=O)Nc2cccc(CN)c2)c1`, the values for the IC50 at Genome polyprotein [1] and at Genome polyprotein [2] were over 100 µM and over 99.5 µM, respectively.
For `Cn1cc([C@@H]2C[C@H](C(=O)Nc3cccc(CN)c3)CC(=O)N2)cn1`, in that order: over 100 µM and over 99.5 µM.
For `NCc1cccc(NC(=O)[C@@H](NC(=O)OCc2ccccc2)c2cccc(-c3ccc(CN)cc3F)c2)c1`, in that order: over 100 µM and over 99.5 µM.
For `O=C(NCCc1nc2ccccc2[nH]1)c1cc2ccc(F)cc2s1`, in that order: over 100 µM and over 99.5 µM.
Regarding `Cc1cc(C(=O)Nc2cccc(CN)c2)c2c(C)nn(CC(=O)NC(C)C)c2n1`, the IC50 against Genome polyprotein [1] is over 100 µM; against Genome polyprotein [2] it was over 99.5 µM.
For `N[C@@H](CCO)c1cccc(NC(=O)c2cc(Cl)cc(NC(=O)OCc3ccccc3)c2)c1` the same measures were over 100 µM and over 99.5 µM.
For `CN(C)[C@@H]1CCC[C@@H](C(=O)Nc2cccc(CN)c2)C1`, in that order: over 100 µM and over 99.5 µM.
Take `C[C@@H](N)c1cccc(NC(=O)[C@H]2[C@H]3CCCCC[C@H]3[C@H]2NC(=O)OCc2ccccc2)c1`: the IC50 at Genome polyprotein [1] is 29 µM; against Genome polyprotein [2] it was 13.5 µM and 13.8 µM.
For `COc1ccc(-c2cccc([C@@H](NC(=O)OCc3ccccc3)C(=O)Nc3cccc(CN)c3)c2)cn1`, the figures for the IC50 against Genome polyprotein [1] and against Genome polyprotein [2] were over 100 µM and over 99.5 µM, respectively.
For `NCc1cccc(NC(=O)[C@@H]2[C@H](N)[C@@H]3CCCCC[C@@H]32)c1` the same measures were over 100 µM and over 99.5 µM.
Regarding `Cn1cc(NC(=O)c2cc(Cl)cc(NC(=O)OCc3ccccc3)c2)cn1`, the IC50 is over 100 µM against Genome polyprotein [1] and over 99.5 µM on Genome polyprotein [2].
For the compound `NCc1cccc(CNC(=O)[C@H]2[C@H]3CCCCC[C@H]3[C@H]2NC(=O)OCc2ccccc2)c1`, the IC50 at Genome polyprotein [1] is 80.3 µM; on Genome polyprotein [2], 14.4 µM and 63.2 µM and 44.4 µM.
With `NCc1cccc(NC(=O)[C@@H]2CCC[C@]3(CCNC3=O)C2)c1`, the results for the IC50 at Genome polyprotein [1] and against Genome polyprotein [2] were over 100 µM and over 99.5 µM, respectively.
For `COC(=O)c1cc(NC(=O)OCc2ccccc2)cc(C(=O)Nc2cccc(CN)c2)c1`, in that order: over 100 µM and over 99.5 µM.
For `NCc1cccc(NC(=O)c2c(F)c(Cl)cc(NC(=O)OCc3ccccc3)c2F)c1` the same measures were over 100 µM and over 99.5 µM.
For `O=C(Nc1cc(Cl)cc(C(=O)Nc2nccc([C@H]3CCCCN3)n2)c1)OCc1ccccc1` the same measures were over 100 µM and over 99.5 µM.
As for `CC(C)[C@@H]1CC[C@@H](C)C[C@H]1C(=O)Nc1cccc(CN)c1`, the half-maximal inhibitory concentration (IC50) was over 100 µM against Genome polyprotein [1] and over 99.5 µM on Genome polyprotein [2].
For `NCc1cccc(NC(=O)c2cc(Cl)cc(C(N)=O)c2)c1` the same measures were over 100 µM and over 99.5 µM.
`NCc1cccc(NC(=O)[C@@]23CCC[C@H](C2)N3C(=O)OCc2ccccc2)c1`: the IC50 on Genome polyprotein [1] is over 100 µM; against Genome polyprotein [2], over 99.5 µM.
For `CN(C)Cc1ccc(NC(=O)c2cc(Cl)cc(NC(=O)OCc3ccccc3)c2)cc1`, in that order: over 100 µM and over 99.5 µM.
`NCc1ccc(NC(=O)[C@H]2[C@H]3CCCCC[C@H]3[C@H]2NC(=O)OCc2ccccc2)cc1`: the IC50 is over 100 µM against Genome polyprotein [1] and 57.4 µM at Genome polyprotein [2].
As to `NCc1cccc(NC(=O)[C@@H]2CCC[C@H](OC(F)(F)F)C2)c1`, the IC50 against Genome polyprotein [1] is over 100 µM; on Genome polyprotein [2], over 99.5 µM.
For `Cc1cc(C(=O)Nc2cccc(CN)c2)cc(NCC(F)(F)F)n1`, in that order: over 100 µM and over 99.5 µM.
Take `Cc1cc(C(=O)Nc2cccc(CN)c2)c2nc(C)n(C)c2n1`: the results for the 50% inhibitory concentration (IC50) against Genome polyprotein [1] and at Genome polyprotein [2] were over 100 µM and over 99.5 µM, respectively.
For `Cc1cc(C)c([C@@H](CC(=O)Nc2cccc(CN)c2)NC(=O)OCc2ccccc2)cc1C`, the concentration for half-maximal inhibition (IC50) on Genome polyprotein [1] is 11.6 µM; at Genome polyprotein [2] it was 7.12 µM and 7.23 µM.
For the compound `Cn1cc(-c2cccc([C@@H](NC(=O)OCc3ccccc3)C(=O)Nc3cccc(CN)c3)c2)ccc1=O`, the figures for the IC50 at Genome polyprotein [1] and at Genome polyprotein [2] were over 100 µM and over 99.5 µM, respectively.
For `CC(F)(F)c1cccc(NC(=O)c2cc(Cl)cc(NC(=O)OCc3ccccc3)c2)c1`, in that order: over 100 µM and over 99.5 µM.
Turning to `O=C(Nc1cc(Cl)cc(C(=O)Nc2cccc(-c3nnn[nH]3)c2)c1)OCc1ccccc1`, the IC50 at Genome polyprotein [1] was 11.1 µM and 11 µM; at Genome polyprotein [2], 13.6 µM.
With `C[C@@H]1C[C@@H](C(=O)Nc2cccc(CN)c2)CCO1`, the results for the 50% inhibitory concentration (IC50) at Genome polyprotein [1] and at Genome polyprotein [2] were over 100 µM and over 99.5 µM, respectively.
For `CN(C)[C@@H]1CCC[C@H](C(=O)Nc2cccc(CN)c2)C1`, in that order: over 100 µM and over 99.5 µM.
For `C[C@@H]1CCC[C@H](C(=O)Nc2cccc(CN)c2)O1` the same measures were over 100 µM and over 99.5 µM.
For `NCc1cccc(NC(=O)c2cc(Br)cc3[nH]ccc23)c1`, in that order: over 100 µM and over 99.5 µM.
`Cc1cc(C(F)(F)F)nc(C(=O)Nc2cccc(CN)c2)n1`: the half-inhibitory concentration (IC50) was over 100 µM on Genome polyprotein [1] and over 99.5 µM at Genome polyprotein [2].
As for `NCc1cccc(Oc2ccc(S(=O)(=O)Nc3ccc(Cl)cc3C(=O)NCC(F)(F)F)cc2)c1`, the values for the 50% inhibitory concentration (IC50) on Genome polyprotein [1] and at Genome polyprotein [2] were over 100 µM and over 99.5 µM, respectively.
For `NCc1cccc(NC(=O)[C@H]2COCC3(CCC3)O2)c1` the same measures were over 100 µM and over 99.5 µM.
For `NCc1cccc(NC(=O)c2cc(Cl)cc3[nH]ncc23)c1` the same measures were over 100 µM and over 99.5 µM.
Take `CC[C@@H](Cc1nnn[nH]1)c1ccc(NC(=O)c2cc(Cl)cc(NC(=O)OCc3ccccc3)c2)cc1`: the IC50 against Genome polyprotein [1] is 8.21 µM and 8.62 µM; against Genome polyprotein [2] it was 8.85 µM.
Turning to `O=C(Nc1cc(Cl)cc(C(=O)Nc2cccc(Cc3nn[nH]n3)c2)c1)OCc1ccccc1`, the 50% inhibitory concentration (IC50) at Genome polyprotein [1] was over 100 µM; on Genome polyprotein [2] it was 22 µM.
With `CC(=O)NCc1cccc(NC(=O)c2cc(Cl)cc(NC(=O)OCc3ccccc3)c2)c1`, the 50% inhibitory concentration (IC50) against Genome polyprotein [1] is over 100 µM; at Genome polyprotein [2] it was over 99.5 µM.
For `C=C(C)c1cccc([C@@H](NC(=O)OCc2ccccc2)C(=O)Nc2cccc(CN)c2)c1` the same measures were over 100 µM and 30.1 µM.
Take `NCc1cccc(NC(=O)c2cccc3c2CCC3)c1`: the values for the 50% inhibitory concentration (IC50) against Genome polyprotein [1] and against Genome polyprotein [2] were over 100 µM and over 99.5 µM, respectively.
For `CNCc1cc(Cl)cc(C(=O)Nc2cccc(CN)c2)c1` the same measures were over 100 µM and over 99.5 µM.
For `NCCc1cccc(-c2cccc([C@@H](NC(=O)OCc3ccccc3)C(=O)Nc3cccc(CN)c3)c2)c1` the same measures were over 100 µM and 33.6 µM.
For `NCc1cccc(NC(=O)[C@@H](NC(=O)OCc2ccccc2)c2cccc(-c3ccc(N)nc3)c2)c1`, in that order: over 100 µM and over 99.5 µM.
`CC(C)(C)OC(=O)NCc1cc(Br)cc(NC(=O)c2cc(Cl)cc(NC(=O)OCc3ccccc3)c2)c1`: the 50% inhibitory concentration (IC50) against Genome polyprotein [1] was over 100 µM; against Genome polyprotein [2], over 99.5 µM.
For `C[C@@H](NCc1c[nH]c2ccccc12)c1cscn1`, in that order: over 100 µM and over 99.5 µM.
On to `NCc1cc(NS(=O)(=O)c2ccc(Oc3ccccc3Cl)cc2)ccc1Cl`, for which the IC50 is over 100 µM at Genome polyprotein [1] and over 99.5 µM at Genome polyprotein [2].
For `CCn1ncc(-c2noc3nc(C)cc(C(=O)Nc4cccc(CN)c4)c23)c1C` the same measures were over 100 µM and over 99.5 µM.
For `NCc1cccc(NC(=O)[C@H]2CCc3nnc(C4CC4)n3C2)c1`, in that order: over 100 µM and over 99.5 µM.
For `COc1ccc2c(c1)c(C(=O)Nc1cccc(CN)c1)c(C)n2C1CCCC1` the same measures were over 100 µM and over 99.5 µM.
`CN1CC=C(c2cccc([C@@H](NC(=O)OCc3ccccc3)C(=O)Nc3cccc(CN)c3)c2)CC1`: the figures for the half-inhibitory concentration (IC50) against Genome polyprotein [1] and against Genome polyprotein [2] were over 100 µM and over 99.5 µM, respectively.
For `NCc1cccc(NC(=O)c2cc(Cl)cc(CN3CCOCC3)c2)c1`, in that order: over 100 µM and over 99.5 µM.
For `CCOc1cccc(-c2ccc(S(=O)(=O)Nc3cc(F)c(Cl)cc3C(=O)O)cc2)c1`, in that order: 7.19 µM and 5.09 µM.
For `NCc1cc(Cl)cc(C(=O)Nc2ccc3c(c2)CNC3)c1` the same measures were over 100 µM and over 99.5 µM.
`C[C@@H](N)c1cc(Cl)cc(C(=O)Nc2cccc(CN)c2)c1`: the 50% inhibitory concentration (IC50) on Genome polyprotein [1] was over 100 µM; against Genome polyprotein [2], over 99.5 µM.
With `O=C(Nc1cc(Cl)cc(C(=O)Nc2cccc(-n3nn[nH]c3=O)c2)c1)OCc1ccccc1`, the IC50 on Genome polyprotein [1] was 8.66 µM and 9.23 µM; against Genome polyprotein [2], 11 µM and 11.4 µM.
